pIC50: −log10 of the molar value. Several values for one entry are separate records, joined by “and”; a condition that tells them apart may be missing. Equal entries are not always repeated. Where two headings read alike, the source gives them in different places.

In series [1] the target is recombinant human dipeptidyl peptidase IV (DPPIV) (Homo sapiens (Human), UniProt P27487). Briefly: In vitro inhibition assay, dipeptidyl peptidase IV. Format: biochemical.
In series [2] the target is recombinant human dipeptidyl peptidase II (DPPII) (Homo sapiens (Human), UniProt Q9UHL4). Briefly: In vitro inhibition assay, dipeptidyl peptidase II. Format: biochemical.
The next series addresses DPP7 (Homo sapiens (Human), UniProt Q9UHL4). Description: EnPlex assay DPP7. Type of series: biochemical.
The target of a further series is DPP4 (Homo sapiens (Human), UniProt P27487). Description: EnPlex assay DPP4. Type of series: biochemical.
A short description of series [3]: Oral PK profile in mice, plasma drug concentrations. Type of series: in vivo, BALB/c mice. The note with it: 3 mg/kg oral gavage, individual mice #1-#3. The procedure: Example 8. […] Drugs dissolved in pH 2 water at 0.3 mg/mL. […] 2. Plasma prepared by centrifugation. 3. Drug concentrations measured by LCMS.
Series [4] addresses recombinant human fibroblast activation protein (FAP) (Homo sapiens (Human), UniProt Q12884). Description: In vitro inhibition assay, fibroblast activation protein. Format: biochemical.
Series [5] deals with recombinant human dipeptidyl peptidase 8 (DPP8) (Homo sapiens (Human), UniProt Q6V1X1). Briefly: In vitro inhibition assay, dipeptidyl peptidase 8. Format: biochemical.
In a further series the test system is macrophages. Briefly: Pyroptosis of macrophages in cell culture. Type of series: cell-based. The note with it: Macrophage; Example 2 table; unit inferred.
The test system of series [6] is MB49 murine urothelial carcinoma cell line. Briefly: MB49 efficacy studies in tumor bearing mice. Type of series: in vivo. The note with it: celecoxib alone, various concentrations, versus vehicle.
The mark [7] stands for this setting: male, BALB/c, mouse, plasma, oral, 3 mg/kg, 5 min post-dose.
[8] abbreviates: male, BALB/c, mouse, plasma, oral, 3 mg/kg, 20 min post-dose.
The mark [9] stands for this setting: male, BALB/c, mouse, plasma, oral, 3 mg/kg, 30 min post-dose.
Setting [10] is: male, BALB/c, mouse, plasma, oral, 3 mg/kg, 40 min post-dose.
The mark [11] stands for this setting: male, BALB/c, mouse, plasma, oral, 3 mg/kg, 120 min post-dose.
[12] abbreviates: male, BALB/c, mouse, plasma, oral, 3 mg/kg, 240 min post-dose.

recombinant human dipeptidyl peptidase IV (DPPIV), sequence (P27487 whole entry): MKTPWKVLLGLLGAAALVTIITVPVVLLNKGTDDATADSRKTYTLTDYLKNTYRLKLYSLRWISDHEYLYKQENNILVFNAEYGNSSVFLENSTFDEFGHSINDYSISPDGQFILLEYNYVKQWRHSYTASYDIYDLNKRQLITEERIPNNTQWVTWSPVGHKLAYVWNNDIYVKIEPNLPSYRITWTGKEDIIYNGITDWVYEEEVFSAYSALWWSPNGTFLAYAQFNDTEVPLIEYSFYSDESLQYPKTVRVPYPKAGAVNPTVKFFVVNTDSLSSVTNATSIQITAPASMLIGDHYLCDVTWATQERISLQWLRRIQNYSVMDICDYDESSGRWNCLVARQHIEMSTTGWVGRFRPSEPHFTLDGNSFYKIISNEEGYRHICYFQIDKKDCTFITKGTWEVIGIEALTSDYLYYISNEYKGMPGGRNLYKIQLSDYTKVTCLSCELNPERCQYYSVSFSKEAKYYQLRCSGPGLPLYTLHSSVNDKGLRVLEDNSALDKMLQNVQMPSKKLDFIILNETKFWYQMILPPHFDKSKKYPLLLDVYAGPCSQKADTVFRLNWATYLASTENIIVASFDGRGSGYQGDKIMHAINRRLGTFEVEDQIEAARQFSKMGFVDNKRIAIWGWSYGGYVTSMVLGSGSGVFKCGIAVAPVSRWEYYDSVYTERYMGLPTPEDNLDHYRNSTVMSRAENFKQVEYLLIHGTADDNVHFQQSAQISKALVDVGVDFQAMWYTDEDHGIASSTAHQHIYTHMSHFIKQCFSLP
DPP4, sequence (P27487 whole entry): as above
recombinant human fibroblast activation protein (FAP), sequence (Q12884 whole entry): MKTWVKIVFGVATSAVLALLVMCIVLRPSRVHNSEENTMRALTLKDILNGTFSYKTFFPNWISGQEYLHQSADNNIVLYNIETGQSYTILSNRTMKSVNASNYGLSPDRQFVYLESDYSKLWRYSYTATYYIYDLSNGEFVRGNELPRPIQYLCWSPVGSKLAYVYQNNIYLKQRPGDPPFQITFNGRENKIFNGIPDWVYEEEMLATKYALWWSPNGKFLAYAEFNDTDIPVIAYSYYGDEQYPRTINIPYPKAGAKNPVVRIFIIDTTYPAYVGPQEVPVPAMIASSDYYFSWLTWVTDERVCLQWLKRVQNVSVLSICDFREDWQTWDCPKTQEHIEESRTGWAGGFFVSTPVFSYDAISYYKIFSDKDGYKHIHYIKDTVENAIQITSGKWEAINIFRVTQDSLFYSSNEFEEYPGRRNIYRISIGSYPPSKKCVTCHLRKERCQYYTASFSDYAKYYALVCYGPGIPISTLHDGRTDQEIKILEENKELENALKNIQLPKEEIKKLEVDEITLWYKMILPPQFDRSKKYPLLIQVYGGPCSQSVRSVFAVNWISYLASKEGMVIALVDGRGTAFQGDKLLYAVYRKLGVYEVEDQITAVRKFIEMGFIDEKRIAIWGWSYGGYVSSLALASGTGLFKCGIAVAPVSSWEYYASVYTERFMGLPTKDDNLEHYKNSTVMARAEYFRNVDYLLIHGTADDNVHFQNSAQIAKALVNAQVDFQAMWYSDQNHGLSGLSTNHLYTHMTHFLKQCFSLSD
recombinant human dipeptidyl peptidase 8 (DPP8), sequence (Q6V1X1 whole entry): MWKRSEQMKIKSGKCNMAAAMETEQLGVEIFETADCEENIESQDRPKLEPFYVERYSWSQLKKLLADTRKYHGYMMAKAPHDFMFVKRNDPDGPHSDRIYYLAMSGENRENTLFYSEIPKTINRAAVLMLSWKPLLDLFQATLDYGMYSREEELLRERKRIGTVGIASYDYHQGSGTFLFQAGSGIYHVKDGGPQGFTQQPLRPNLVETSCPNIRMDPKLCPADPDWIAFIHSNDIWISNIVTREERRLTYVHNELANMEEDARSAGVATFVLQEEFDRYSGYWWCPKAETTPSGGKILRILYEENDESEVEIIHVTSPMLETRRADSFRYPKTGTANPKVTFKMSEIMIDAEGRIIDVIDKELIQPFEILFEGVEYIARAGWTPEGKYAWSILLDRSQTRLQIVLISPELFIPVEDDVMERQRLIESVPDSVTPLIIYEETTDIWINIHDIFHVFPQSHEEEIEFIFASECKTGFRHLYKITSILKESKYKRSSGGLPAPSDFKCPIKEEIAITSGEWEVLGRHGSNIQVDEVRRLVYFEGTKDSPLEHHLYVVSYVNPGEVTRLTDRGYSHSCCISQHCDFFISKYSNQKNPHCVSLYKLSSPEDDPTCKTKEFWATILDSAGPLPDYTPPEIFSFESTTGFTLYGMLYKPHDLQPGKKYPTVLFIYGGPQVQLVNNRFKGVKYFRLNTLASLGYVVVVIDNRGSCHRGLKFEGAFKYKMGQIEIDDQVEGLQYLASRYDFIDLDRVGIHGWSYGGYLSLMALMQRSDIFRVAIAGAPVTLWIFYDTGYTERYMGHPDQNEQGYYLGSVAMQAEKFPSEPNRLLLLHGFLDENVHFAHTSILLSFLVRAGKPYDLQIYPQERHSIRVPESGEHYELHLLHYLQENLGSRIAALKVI

The pIC50 is −log10 of the IC50, conventionally taken in molar units. With `CC1([C@H](N)C(=O)N2CCC[C@H]2B(O)O)CCCC1` (relative stereo) [4175CP], the pIC50 in series [1] was 8.54; in series [2] (DPP2), 8.04.
Regarding `N[C@H](C(=O)N1CCC[C@H]1B(O)O)C12CC3CC(CC(O)(C3)C1)C2` (relative stereo) [ARI-3102A], the pIC50 in series [2] (DPP2) was 7.09; against DPP7, below 7.00.
For `N[C@H](C(=O)N1CCC[C@H]1B(O)O)C12CC3CC(CC(Cl)(C3)C1)C2` (relative stereo) [ARI-3102C], the figures for the pIC50 (in series [1]; on DPP4) were 8.22 and 11.22, respectively.
On to `CC1([C@H](N)C(=O)N2CCC[C@H]2B(O)O)CCCCC1` (relative stereo) [ARI-4175CH], for which the pIC50 in [1] is 8.55; in series [2] (DPP2) it was 7.27; on DPP4 it was 11.30; on DPP7, below 7.00. The “concentration in Plasma” value is 230 nM and 420 nM in series [3] (5 min post-dose); 250 nM and 90 nM in series [3] (10 min post-dose); 230 nM and 270 nM in series [3] (20 min post-dose); 130 nM in series [3] (30 min post-dose); 250 nM and 190 nM in [3] (40 min post-dose); 0 nM and 90 nM in [3] (60 min post-dose). Further, the “concentration in Plasma” value in [3] (120 min post-dose) was 70 nM and 90 nM; in series [3] (240 min post-dose), 10 nM. This compound also yielded a concentration at 5 min in series [3] (setting [7]) of 280 nM. The same compound displayed a concentration at 20 min in series [3] (setting [8]) of 230 nM. In [3] (setting [9]), this compound yielded a concentration at 30 min of 240 nM. Further, the concentration at 40 min in series [3] (setting [10]) is 170 nM. In addition, the concentration at 120 min in series [3] (setting [11]) worked out at 70 nM. In addition, the concentration at 240 min in series [3] (setting [12]) stood at 10 nM. The “Average [G-CSF] at 6 hrs” value worked out at 1100 pg/mL in the series on G-CSF (5 μg/animal PO), 51000 pg/mL in the series with G-CSF (20 μg/animal PO) and 60000 pg/mL with G-CSF (20 μg/animal SC).
For the compound `CC(C)(F)[C@H](N)C(=O)N1CCC[C@H]1B(O)O` (relative stereo) [ARI-4268], the pIC50 in [1] was 7.92; in series [2] (DPP2), 7.17.
Consider `N[C@H](C(=O)N1CCC[C@H]1B(O)O)C12CC3CC(CC(C3)C1)C2` (relative stereo) [ARI-5544, Gly(1-adamantyl)-boroPro], for which the pIC50 is 7.57 in [2] (DPP2) and 7.68 in series [2] (compound incubated at room temperature overnight at pH 2.0 or pH 7.4 prior to the assays, read-out: DPPII IC50). Besides, the “concentration in Plasma” value is 110 nM and 220 nM in series [3] (5 min post-dose); 170 nM and 180 nM in [3] (20 min post-dose); 220 nM and 170 nM in series [3] (30 min post-dose); 130 nM and 140 nM in series [3] (40 min post-dose); 110 nM and 90 nM in [3] (60 min post-dose); 30 nM and 50 nM in [3] (120 min post-dose). Further, the “concentration in Plasma” value in series [3] (240 min post-dose) was 10 nM and 20 nM. In series [3] (setting [7]), this compound registered a concentration at 5 min of 160 nM. Also, in series [3] (male, BALB/c, mouse, plasma, oral, 3 mg/kg, 10 min post-dose), the concentration at 10 min turned out to be 270 nM. This compound also had a concentration at 20 min in series [3] (setting [8]) of 140 nM. Further, the concentration at 30 min in series [3] (setting [9]) came to 110 nM. In addition, the concentration at 40 min in series [3] (setting [10]) was determined as 120 nM. This compound also had a concentration at 60 min in [3] (male, BALB/c, mouse, plasma, oral, 3 mg/kg, 60 min post-dose) of 80 nM. For the same compound, the concentration at 120 min in series [3] (setting [11]) was found to be 30 nM. In series [3] (setting [12]), the concentration at 240 min came to 20 nM. The entries for the “Average [G-CSF] at 6 hrs” value with G-CSF (5 μg/animal PO), in the series on G-CSF (20 μg/animal PO) and in the series on G-CSF (20 μg/animal SC) were 650 pg/mL, 30000 pg/mL and 73000 pg/mL, respectively.
Take `CC1([C@H](N)C(=O)N2CCC[C@H]2B(O)O)CC1` (relative stereo) [compound 4367]: the results for the pIC50 in series [1], in [2] (DPP2) and in series [4] were 8.85, 7.47 and 6.46, respectively.
With `CC1(C)CCCN[C@@H]1C(=O)N1CCC[C@H]1B(O)O` (relative stereo) [compound 5349], the pIC50 in series [5] is 6.60; in [1] it was 7.04; in [2] (DPP2), 6.21; in series [4], 4.85.
As to `CC1(C)CN[C@@H]1C(=O)N1CCC[C@H]1B(O)O` (relative stereo) [compound 5362], the pIC50 was 9.30 in [1] and 7.17 in [2] (DPP2).
Turning to `CC1(C)CCN[C@@H]1C(=O)N1CCC[C@H]1B(O)O` (relative stereo) [compound 5363], the pIC50 in series [2] (DPP2) was 6.96.
Consider `C[C@H](N)C(=S)N1CCC[C@H]1B(O)O` [ARI-2243], for which the pIC50 in the series on macrophages is 4.96. Further, the “Average [G-CSF] at 6 hrs” value with G-CSF (20 μg/animal PO) came to 330 pg/mL; in the series on G-CSF (50 μg/animal IP), 2100 pg/mL; with G-CSF (100 μg/animal IP), 2400 pg/mL; in the series on G-CSF (300 μg/animal IP), 4400 pg/mL.
As to `CC(C)(C)[C@H](N)C(=O)N1CCC[C@H]1B(O)O` [ARI-4175], the “Average [G-CSF] at 6 hrs” value came to 19000 pg/mL with G-CSF (20 μg/animal PO) and 65000 pg/mL in the series on G-CSF (20 μg/animal SC).
Regarding `N[C@H](C(=O)N1CCC[C@H]1B(O)O)C12CC3CC(CC(F)(C3)C1)C2` [ARI-5870], the negative logarithm of the IC50 (pIC50) in series [2] (DPP2) is 7.24.
On to `NC(N)=NCCC[C@H](N)C(=O)N1CCC[C@H]1B(O)O` [Arg-boroPro], for which the “Average [G-CSF] at 6 hrs” value was found to be 320 pg/mL in the series on G-CSF (20 μg/animal PO); 160 pg/mL in the series on G-CSF (20 μg/animal SC); 930 pg/mL in the series with G-CSF (200 μg/animal PO); 670 pg/mL in the series on G-CSF (200 μg/animal SC); 3500 pg/mL in the series on G-CSF (2000 μg/animal PO); 31000 pg/mL in the series with G-CSF (2000 μg/animal SC).
With `N[C@@H](CC(=O)N1CCn2c(nnc2C(F)(F)F)C1)Cc1cc(F)c(F)cc1F` [Sitagiptin, reference compound], the results for the “Average [G-CSF] at 6 hrs” value in the series on G-CSF (100 μg/animal SC), with G-CSF (1000 μg/animal PO) and in the series with G-CSF (2000 μg/animal SC) were 100 pg/mL, 340 pg/mL and 950 pg/mL, respectively.
On to `Cc1ccc(-c2cc(C(F)(F)F)nn2-c2ccc(S(N)(=O)=O)cc2)cc1` [celecoxib], for which, in series [6], the tumor growth rates result was “no observed differences in tumor growth rates compared to control”.
As for `C[C@H](N)C(=O)N1CCC[C@H]1B(O)O` [compound 1129], the pIC50 in the series with macrophages is below 5.00.
`N[C@H](C(=O)N1CCC[C@H]1B(O)O)C1CCCCC1` [compound 1797, Crg-boroPro] showed a negative-log IC50 (pIC50) in the series with macrophages of 7.64. In addition, the “Average [G-CSF] at 6 hrs” value in the series with G-CSF (20 μg/animal PO) worked out at 20000 pg/mL.
In turn, `CC(C)[C@H](N)C(=S)N1CCC[C@H]1B(O)O` [compound 2401] gave a pIC50 in the series on macrophages below 4.70.
In turn, `CN(CB(O)O)C(=O)[C@@H](N)CCC(=O)O` [compound 2408] showed a negative-log IC50 (pIC50) with macrophages below 5.00.
In the case of `CC[C@H](C)[C@H](N)C(=O)N1CCC[C@H]1B(O)O` [compound 4316, theoric-boroPro], the pIC50 with macrophages is 7.68. Also, in the series on G-CSF (20 μg/animal PO), the “Average [G-CSF] at 6 hrs” value was 5000 pg/mL.
For `CC[C@@H](C)[C@H](N)C(=O)N1CCC[C@H]1B(O)O` [compound 4317], the pIC50 in the series on macrophages was 7.89.
`N[C@H](C(=O)N1CCC[C@H]1B(O)O)C1(C(F)(F)F)CC1` [compound 4949]: the pIC50 in series [2] (DPP2) is 7.41.
As for `N[C@@H](CCC(=O)O)C(=O)N1CCC[C@H]1B(O)O` [compound 8120, Glu-boroPro], the “Average [G-CSF] at 6 hrs” value in the series on G-CSF (20 μg/animal PO) amounted to 340 pg/mL; in the series on G-CSF (200 μg/animal PO), 160 pg/mL; in the series on G-CSF (200 μg/animal SC) it was 210 pg/mL; in the series on G-CSF (2000 μg/animal PO), 2300 pg/mL; with G-CSF (2000 μg/animal SC), 16000 pg/mL.
